Columns and labels:
Test in all cases: relative viability vs DMSO control (72 h) (fraction); higher = more viable cells
A204 = test system: A204
Outline: (§1)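 Relative viability is percent growth read by ATPLite and averaged over up to triplicate wells. Sarcoma cells were seeded in 384-well plates to reach 80–90% confluence and given 2.5 µl of serially diluted compound after 24 h, from source plates of 10 mM to 0.0002 mM. Incubation lasted 72 h at 37 °C, 5% CO2, with 0.1% DMSO vehicle and a 5 µM positive control, and the data were rescaled so 1 equals full and 0 equals none.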

KHOS-NP = test system: KHOS-NP
Outline: as §1

SW872 = test system: SW872
Outline: as §1

HS729 = test system: HS729
Outline: as §1

SW684 = test system: SW684
Outline: as §1

CC#CC(=O)N1CCC[C@H]1c1nc(-c2ccc(C(=O)Nc3ccccn3)cc2)c2c(N)nccn12 [Acalabrutinib]
relative viability
Details	A204	HS729	KHOS-NP	SW684	SW872
0.00017 µM	1.07	0.88	1.03	1.11	0.999
0.00051 µM	1.07	0.865	1.03	1.14	1.02
0.00152 µM	1.06	0.903	1.04	1.09	1.01
0.00457 µM	1.09	0.941	1.04	1.13	1.01
0.01372 µM	1.1	0.866	1.02	1.13	0.975
0.04115 µM	1.09	0.877	1.03	1.1	0.95
0.1235 µM	1.07	0.894	1.03	1.11	0.979
0.3704 µM	1.05	0.868	1.05	1.15	0.997
1.111 µM	1.05	0.889	1.04	1.14	1.04
3.333 µM	1.02	0.88	1.08	1.12	1.03
10 µM	0.872	0.95	1.08	1.08	0.987

N#CC1(c2ccc(NC(=O)c3cccnc3NCc3ccncc3)cc2)CCCC1 [Apatinib]
relative viability
Details	A204	HS729	KHOS-NP	SW684	SW872
0.00017 µM	1.03	1.06	1.03	1.04	1.06
0.00051 µM	1.03	1.0262	1.04	1.1	1.07
0.00152 µM	1.05	1.066	1.05	1.06	1.05
0.00457 µM	1.07	1.04	1.05	1.08	1.05
0.01372 µM	1.02	0.997	1.06	1.09	1.08
0.04115 µM	1.01	1.03	1.08	1.09	1.08
0.1235 µM	0.992	1.04	1.04	1.1	1.05
0.3704 µM	0.811	0.963	1.027	1.05	1.02
1.111 µM	0.482	0.906	1	1.07	1.02
3.333 µM	0.362	0.865	0.918	1.05	1.03
10 µM	0.342	0.745	0.726	1.02	0.972

O=C(Nc1ccc(OC(F)(F)Cl)cc1)c1cnc(N2CC[C@@H](O)C2)c(-c2cc[nH]n2)c1 [Asciminib]
relative viability
Details	A204	HS729	KHOS-NP	SW684	SW872
0.00017 µM	1.02	0.939	1.04	1.09	0.966
0.00051 µM	1.04	0.932	1.06	1.06	0.94
0.00152 µM	1.05	0.93	1.06	1.09	0.939
0.00457 µM	1.04	0.915	1.04	1.09	0.938
0.01372 µM	1.04	0.916	1.061	1.08	0.937
0.04115 µM	1.05	0.893	1.04	1.102	0.978
0.1235 µM	1.06	0.928	1.06	1.16	0.9486
0.3704 µM	1.06	0.901	1.025	1.23	1.01
1.111 µM	1.04	0.903	0.998	1.18	0.991
3.333 µM	0.799	0.954	0.901	1.11	0.974
10 µM	0.449	0.829	0.695	0.627	0.93

CNC(=O)c1ccccc1Sc1ccc2c(/C=C/c3ccccn3)n[nH]c2c1 [Axitinib]
relative viability
Details	A204	HS729	KHOS-NP	SW684	SW872
0.00017 µM	1.04	1.09	1.08	1.17	1.08
0.00051 µM	1.07	1.03	1.12	1.17	1.04
0.00152 µM	1.03	1.04	1.12	1.21	1.06
0.00457 µM	0.942	0.987	1.12	1.188	1.08
0.01372 µM	0.77	0.909	1.12	1.19	1.05
0.04115 µM	0.484	0.916	1.106	1.15	1.03
0.1235 µM	0.405	0.929	1.07	1.14	0.981
0.3704 µM	0.359	0.861	1.01	1.12	0.902
1.111 µM	0.289	0.698	0.986	1.14	0.779
3.333 µM	0.159	0.271	0.827	0.978	0.511
10 µM	0.0338	0.111	0.405	0.493	0.213

Cc1cc2c(F)c(Oc3ncnn4cc(OC[C@@H](C)O)c(C)c34)ccc2[nH]1 [Brivanib]
relative viability
Details	A204	HS729	KHOS-NP	SW684	SW872
0.00017 µM	1.05	0.93	1.04	1.1	0.989
0.00051 µM	1.035	0.949	1.05	1.11	0.999
0.00152 µM	1.02	0.955	1.05	1.12	0.996
0.00457 µM	1.07	0.943	1.04	1.13	1.04
0.01372 µM	1.06	0.929	1.06	1.146	1.009
0.04115 µM	1.03	0.912	1.058	1.15	1
0.1235 µM	1.01	0.925	1.06	1.12	1.03
0.3704 µM	1.01	0.964	1.07	1.15	1.05
1.111 µM	0.987	0.963	1.05	1.12	1.06
3.333 µM	0.95	0.921	1.07	1.16	1.056
10 µM	0.642	0.856	0.964	1.21	1.02

CO[C@H]1C[C@@H]2CC[C@@H](C)[C@@](O)(O2)C(=O)C(=O)N2CCCC[C@H]2C(=O)O[C@H]([C@H](C)C[C@@H]2CC[C@@H](OCCO)[C@H](OC)C2)CC(=O)[C@H](C)/C=C(\C)[C@@H](O)[C@@H](OC)C(=O)[C@H](C)C[C@H](C)/C=C/C=C/C=C/1C [Certican]
relative viability
Details	A204	HS729	KHOS-NP	SW684	SW872
0.00017 µM	0.919	0.907	1.05	1.08	0.922
0.00051 µM	0.793	0.943	1.07	1.125	0.774
0.00152 µM	0.657	0.896	1.07	1.069	0.6659
0.00457 µM	0.619	0.835	1.05	1.03	0.645
0.01372 µM	0.591	0.903	1.03	0.914	0.611
0.04115 µM	0.517	0.829	1	0.829	0.592
0.1235 µM	0.498	0.828	1.02	0.844	0.574
0.3704 µM	0.485	0.808	1.04	0.813	0.561
1.111 µM	0.487	0.821	1.03	0.83	0.567
3.333 µM	0.45	0.828	1.02	0.872	0.584
10 µM	0.43	0.891	0.824	0.807	0.584

CC1(COc2ccc3c(c2)ncn3-c2ccc3cccc(N4CCC(N)CC4)c3n2)COC1 [Crenolanib]
relative viability
Details	A204	HS729	KHOS-NP	SW684	SW872
0.00017 µM	1.085	0.96	1.05	1.02	1.03
0.00051 µM	1.07	0.973	1.03	1.05	1.01
0.00152 µM	1.08	1.03	1.02	1.08	1.03
0.00457 µM	1.05	0.992	1.05	1.04	1.06
0.01372 µM	1.01	1.01	1.03	1.04	1.05
0.04115 µM	0.819	0.98	1.01	1.05	1.02
0.1235 µM	0.594	0.97	0.998	1.08	1.01
0.3704 µM	0.457	1.01	0.946	1.1	0.988
1.111 µM	0.403	1.034	0.765	1.15	0.95
3.333 µM	0.326	0.983	0.605	0.978	0.786
10 µM	0.016	0.901	0.511	0.423	0.0216

CC(C)(C)c1nc(-c2cccc(NS(=O)(=O)c3c(F)cccc3F)c2F)c(-c2ccnc(N)n2)s1 [Dabrafenib]
relative viability
Details	A204	HS729	KHOS-NP	SW684	SW872
0.00017 µM	1	0.958	1.09	1.13	1.08
0.00051 µM	1.04	0.949	1.07	1.09	1.01
0.00152 µM	1.04	0.867	1.05	1.129	0.907
0.00457 µM	1.04	0.85	0.995	1.18	0.821
0.01372 µM	1.05	0.84	1.01	1.13	0.614
0.04115 µM	0.978	0.844	1.03	1.12	0.558
0.1235 µM	0.938	0.774	1.01	1.13	0.525
0.3704 µM	0.843	0.659	0.901	1.025	0.463
1.111 µM	0.76	0.63	0.743	0.953	0.412
3.333 µM	0.69	0.683	0.522	1.09	0.398
10 µM	0.614	0.811	0.303	1.16	0.334

CCc1cnn2c(NCc3ccc[n+]([O-])c3)cc(N3CCCC[C@H]3CCO)nc12 [Dinaciclib]
relative viability
Details	A204	HS729	KHOS-NP	SW684	SW872
0.00017 µM	0.998	1.05	1.03	0.96	1.01
0.00051 µM	1.02	1.08	1.05	1.01	1.01
0.00152 µM	0.9831	1.09	1.06	1.02	1.01
0.00457 µM	0.913	1.06	1.07	0.964	1.03
0.01372 µM	0.482	1.03	0.836	0.669	0.947
0.04115 µM	0.247	0.396	0.183	0.713	0.412
0.1235 µM	0.235	0.378	0.153	0.71	0.279
0.3704 µM	0.199	0.397	0.163	0.713	0.268
1.111 µM	0.187	0.386	0.164	0.689	0.259
3.333 µM	0.179	0.371	0.162	0.7	0.256
10 µM	0.18	0.332	0.137	0.71	0.245

From the supplement of paper PMC10883282
